# Data reported in PMC10039358, “The 8-bromobaicalein inhibited the replication of dengue, and Zika viruses and targeted the dengue polymerase” (Scientific Reports, 2023).
# Tests used:
# [1] = Cytotoxicity (CC50), MTS assay; conditions: human
# Description: (§1) LLC/MK2 (ATCC® CCL-7), HEK-293 (ATCC® CRL-1573), HepG2 (ATCC® HB-8065), THP-1 (ATCC® TIB-202), Huh-7, RD (ATCC® CCL-136™), and C6/36 (ATCC® CRL-1660) cell lines were propagated and maintained as previously described[16],[21],[40],[53]. Reference DENV1 (16007), DENV2 (NGC, 16681), DENV3 (16562), DENV4 (1036), ZIKV (SV0127/14), and EV-A71 (BRCR) were propagated in Vero, C6/36, and R.D. cells as described[16],[21] Phumee et al.[53]. Cytotoxic concentration (CC50) of LLC/MK2, THP-1, HEK-293, HepG2, Huh-7, and R.D. cells were analyzed as previously described. […] Briefly, cells were seeded overnight and infected with each virus at the multiplicity of infection (M.O.I.) of 0.1 for 1 h. The compound was added during and after infection, and cells were incubated for 72 h. Supernatants were collected for 96-well[55] or a traditional 24-well plaque titration.
# (§2) Supplementary Fig. S2. […] Briefly, cells were seeded overnight before the compound addition.
# [2] = Cytotoxicity (CC50), MTS assay; conditions: human; remark: listed apart in the source
# Description: as §1, §2
# DENV-2 MTase = target: T1, DENV-2 MTase (Dengue virus type 2, UniProt P14340); assay: MTase-Glo methyltransferase assay; format: biochemical; conditions: 100 µM compound
# T1 construct: N-terminally Histidine-tagged DENV-2 MTase (NHis-MTase) synthesized according to previous description; His-tag (N)
# Procedure: The production of DENV2 MTase was performed according to a described protocol. In brief, N-terminally Histidine-tagged DENV-2 MTase (NHis-MTase) synthesized according to previous description[30] (GenScript; Piscataway, NJ, USA) was expressed with 100 µM IPTG (isopropyl-b-D-thiogalactopyranoside) induction, at 27 °C for 16 h. Cell disruption and clarification were sequentially done via sonication and centrifugation at 12,000 rpm for 30 min at 4 °C. His-tagged […] was purified by immobilized metal affinity chromatography (IMAC; Cytiva, Marlborough, MA, USA) with 500 mM imidazole elution. The eluate was dialyzed against 2 L of 50 mM Tris, pH 7.5, 50 mM NaCl, 1 mM MgCl2, 40% glycerol, and 1 mM DTT at 4 °C overnight. The purified enzyme was verified by Coomassie staining and methyltransferase activity.
# The MTase assay for inhibition testing was adapted from the previous publications. The MTase assay for inhibition testing was performed using MTase-Glo™ Methyltransferase Assay according to the manufacturer’s protocol (Promega, Madison, Wisconsin, USA). Each reaction was performed in 50 µl reaction using the MTase from DENV-2. […] The luminescence was measured using VICTORTM X3 2030 Multilabel Reader (Perkin Elmer, Waltham, MA, USA). The percent enzyme activity was calculated from two independent experiments by using PRISM version 9 (GraphPad Software, La Jolla, CA, USA).
# [3] = Cytotoxicity (CC50), MTS assay
# Description: as §1, §2
# [4] = Cytotoxicity (CC50), MTS assay; conditions: human; remark: listed apart in the source
# Description: as §1, §2
# various cell lines = assay: Cytotoxicities in various cell lines, summary; format: cell-based; conditions: 100 µM, most cells
# Procedure: as §2
# [5] = Cytotoxicity (CC50), MTS assay; conditions: human; remark: listed apart in the source
# Description: as §1, §2
# [6] = test system: chikungunya virus (CHIKV); assay: Antiviral efficacy (EC50) against chikungunya virus; format: cell-based; conditions: LLC-MK2
# C57BL/6 mice = assay: Animal toxicity, 7 days intraperitoneal
# Procedure: (A) ALT and (B) Cr levels in infant mice and (C) ALT and (D) Cr levels in adult mice taken at the 8th day after seven consecutive days of 10 mg/kg 8-bromobaicalein, once daily, intraperitoneal administration. Plasma samples were collected for analysis of hepatorenal functions. Each data point represented the ALT or Cr levels of each individual. Error bars indicated the standard deviation of the means.
# All methods were carried out in accordance with relevant guidelines and regulations. All experimental protocols were approved by the Institutional Animal Care and Use Committee of the Faculty of Medicine, Chulalongkorn University, Bangkok, Thailand (certificate number: 027/2562), based on the National Institutes of Health, U.S.A.'s criteria for the use and treatment of laboratory animals and by the National University of Singapore (protocol number: R20-0073). All methods are reported in accordance with ARRIVE guidelines (https://arriveguidelines.org) for the reporting of animal experiments. The 8-bromobaicalein was daily administered at 10 mg/kg via intraperitoneal injection for 7 days (n = 6) to determine the drug safety. The control group (n = 6) was injected with the vehicle (5% DMSO, 33.25% polyethylene glycol (PEG.)-400, 1.90% ethanol, and 59.85% distilled water). All mice were weighed daily and monitored for clinical signs using a clinical scoring system. Blood samples were collected via submandibular and cardiac puncture at the 8th day after the first compound administration for alanine transaminase (EnzyChrom, EALT-100, BioAssay, Hayward, CA, USA), and serum creatinine (QuantiChromTM, DICT-500, BioAssay, Hayward, CA, USA) as markers of hepatotoxicity and nephrotoxicity, respectively.
# ZIKV = assay: Time-of-addition, viral RNA by RT-qPCR; format: cell-based; conditions: 10 µM added 1, 6, and 12 h after infection, LLC/MK2, M.O.I. 1
# Procedure: (§3) The protocol was adapted from a previous description. Briefly, LLC/MK2 cells (5 × 10^4) were seeded in a 24-well plate and incubated as described. Cells were infected with DENV2 NGC, unless otherwise indicated, at the M.O.I. of 0.1 before adding the compound at designated concentrations. DMSO at 1% was used as no inhibition control. Supernatants were collected to determined viral titers by plaque titration assay or RT-qPCR.
# (§4) Supplementary Fig. S8. The time-of-addition of 8-bromobaicalein against DENV3-, and ZIKV-infected LLC/MK2 cells. Briefly, the 10 µM 8-bromobaicalein was added to the virus-infected cells (M.O.I. of 1) at 1, 6, 12, 24, and 48 h post-infection. Supernatants were collected at 48 h after infection for analysis by RT-qPCR. Results were reported as percent inhibition from DMSO-treated cells.
# DENV3 = assay: Time-of-addition, viral RNA by RT-qPCR; format: cell-based; conditions: 10 µM added 1, 6, and 12 h after infection, LLC/MK2, M.O.I. 1
# Procedure: as §3, §4
# ZIKV (SV0127/14) = assay: Antiviral efficacy (EC50), plaque titration; format: cell-based; conditions: for EC50: Zika virus, ZIKV (SV0127/14), LLC/MK2 cells, M.O.I. 0.1, 72 h
# Description: as §1
# DENV2 (NGC) = assay: Antiviral efficacy (EC50), plaque titration; format: cell-based; conditions: for EC50: Dengue virus, DENV2, LLC-MK2, 72 h
# Description: as §1
# DENV1 (16008) = assay: Antiviral efficacy (EC50), plaque titration; format: cell-based; conditions: for EC50: LLC-MK2, 72 h
# Description: as §1
# DENV3 (16562) = assay: Antiviral efficacy (EC50), plaque titration; format: cell-based; conditions: for EC50: LLC-MK2, 72 h
# Description: as §1
# EV-A71 (BRCR) = assay: Antiviral efficacy (EC50), plaque titration; format: cell-based
# Description: as §1
# DENV4 (1036) = assay: Antiviral efficacy (EC50), plaque titration; format: cell-based; conditions: for EC50: LLC-MK2, 72 h
# Description: as §1
# DENV2 NS5/RdRp = target: T2, DENV2 NS5/RdRp (Dengue virus type 2, UniProt P29990); assay: In vitro RdRp assay (SYTO-9 fluorescence); format: biochemical, DENV-2
# T2 construct: The 73.2 kDa of non-tagged NS5/RdRp was successfully purified by size exclusion chromatography; His-tag (N, cleaved yes); made in house
# Procedure: The production of DENV2 RdRp was performed according to a described protocol. In brief, N-terminally Histidine-tagged DENV2 RdRp (NHis-RdRp) was expressed with 200 µM IPTG (isopropyl-b-D-thiogalactopyranoside) induction, at 37 °C for 4 h. Cell disruption and clarification were sequentially done via sonication and centrifugation at 15,000 rpm for 1 h at 4 °C. His-tagged RdRp was purified by immobilized metal affinity chromatography (IMAC) with 175 mM imidazole elution. His-tag was removed by adding 2 units thrombin per 1 mg protein during dialysis for 2 days at 4 °C. The non-tagged RdRp was further purified by size exclusion chromatography. […]
# The RdRp assay for inhibition testing was adapted from the previous publications[46],[71]. […] The nascent double-stranded RNA was quantitated by mixing 10 µl of the reaction mixture with 10 µl of 5 µM SYTO-9 dye in Tris–EDTA buffer and incubating at room temperature for 5 min. Fluorescence was measured at excitation and emission wavelengths of 485 nm and 520 nm, respectively, by using EnSight Multimode Plate Reader (Perkin Elmer, Waltham, MA, USA). The IC50 value was calculated from three independent experiments by using PRISM version 9 (GraphPad Software, Inc., La Jolla, CA, USA).
# DENV1-4, and ZIKV = assay: Antiviral efficacy, summary over dengue serotypes and Zika; format: cell-based
# DENV2 NGC = assay: Cell-based time-of-addition study, plaque assay; conditions: 2, 5 or 10 µM, added within 12 h after infection, LLC/MK2, harvested 72 h
# Procedure: Figure 5 A scheme and DENV2 titers (pfu/ml) in LLC/MK2 cells of time-of-drug addition study. Briefly, the 2, 5, and 10 µM 8-bromobaicalein was added into DENV2-infected cells (M.O.I. of 0.1) at various time points. All supermatants were harvested at 72 h and quantified by plaque assay. Errors indicated the standard deviation of three biological replicates.
# as §3
# Vero = conditions: cited from earlier work
# [7] = test system: dengue, Zika, and Japanese encephalitis viruses; conditions: depending the assay and detection systems ref 32, 47, 48; cited from earlier work
# A549 = conditions: cited from earlier work
# HaCat cells = conditions: cited from earlier work
# [8] = 8th day after first injection, 10 mg/kg i.p., infant and adult
# T1 sequence (P14340 2493-2755): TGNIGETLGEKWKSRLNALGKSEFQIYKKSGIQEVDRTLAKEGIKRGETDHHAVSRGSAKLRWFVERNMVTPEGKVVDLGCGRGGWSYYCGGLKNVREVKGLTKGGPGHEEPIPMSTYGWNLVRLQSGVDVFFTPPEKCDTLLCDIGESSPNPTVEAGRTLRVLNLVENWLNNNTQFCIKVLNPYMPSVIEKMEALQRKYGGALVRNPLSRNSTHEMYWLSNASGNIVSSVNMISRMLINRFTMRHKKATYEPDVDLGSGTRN
smiles,measurement,setting,value
O=c1cc(-c2ccccc2)oc2c(Br)c(O)c(O)c(O)c12 [8-bromobaicalein],CC50 at 48 h,[1],> 100000 nM
same,CC50 at 48 h,[2],> 100000 nM
same,inhibition at 100 µM,DENV-2 MTase,< 50%
same,CC50 at 48 h,[3]; human,> 100000 nM
same,CC50 at 48 h,[3]; rhesus monkey,> 250000 nM
same,CC50 at 48 h,[4],> 100000 nM
same,Cytotoxicity to cells,various cell lines,not toxic
same,CC50 at 48 h,[5],97900 ± 7060 nM
same,EC50,[6],490 ± 110 nM
same,Clinical scorings,"C57BL/6 mice; 10 mg/kg i.p. once daily, 7 days",within normal range
same,General health of mice,"C57BL/6 mice; 10 mg/kg i.p. once daily, 7 days, infant and adult mice",healthy throughout the experiments
same,"Alanine transaminase (ALT) level, treated vs control",C57BL/6 mice; [8],insignificantly different
same,"Plasma creatinine (Cr) level, treated vs control",C57BL/6 mice; [8],insignificantly different
same,ALT in adult cohort,"C57BL/6 mice; adult mice, 10 mg/kg i.p., 7 days",slight ALT increase
same,Inhibition of ZIKV RNA,ZIKV,inhibited
same,Inhibition of DENV3 RNA,DENV3,inhibited
same,Selectivity index (SI),"ZIKV (SV0127/14); ZIKV, CC50/EC50 in LLC/MK2",> 347.2222
same,EC50,ZIKV (SV0127/14),720 ± 200 nM
same,Selectivity index (SI),"DENV2 (NGC); DENV2, CC50/EC50 in LLC/MK2",> 284.0909
same,EC50,DENV2 (NGC),880 ± 140 nM
same,Selectivity index (SI),"DENV1 (16008); DENV1, CC50/EC50 in LLC/MK2",> 378.7879
same,EC50,DENV1 (16008),660 ± 50 nM
same,Selectivity index (SI),"DENV3 (16562); DENV3, CC50/EC50 in LLC/MK2",> 312.5
same,EC50,DENV3 (16562),800 ± 80 nM
same,EC50,"EV-A71 (BRCR); Enterovirus A, EVA71, EV-A71 (BRCR), table title LLC/MK2 cells, methods R.D. cells",> 25000 nM
same,Inhibition of enterovirus-A71,EV-A71 (BRCR); nonenveloped enterovirus-A71,did not inhibit
same,Selectivity index (SI),"DENV4 (1036); DENV4, CC50/EC50 in LLC/MK2",> 312.5
same,EC50,DENV4 (1036),800 ± 150 nM
same,IC50,DENV2 NS5/RdRp,34900 nM
same,Selectivity index (SI) in dengue and Zika viruses,"DENV1-4, and ZIKV; LLC/MK2",about 300
same,EC50,"DENV1-4, and ZIKV; Zika virus, DENV1, read-out: EC50s against DENV1-4 and ZIKV",660 to 880 nM
same,Inhibition of virion progeny,DENV2 NGC,1–2.5 log concentrations (pfu/mL)
"O=c1cc(-c2ccccc2)oc2cc(O)c(O)c(O)c12 [baicalein, 5,6,7-trihydroxyflavone]",CC50 at 48 h,[3]; rhesus monkey,> 250000 nM
same,CC50,Vero,> 100000 nM
same,EC50,[7],4 to 24000 nM
same,CC50,A549,> 50000 nM
same,CC50,HaCat cells,> 200000 nM
same,EC50,ZIKV (SV0127/14),1580 ± 420 nM
same,EC50,DENV2 (NGC),4040 ± 1370 nM
same,EC50,DENV1 (16008),1400 ± 380 nM
same,EC50,DENV3 (16562),1190 ± 660 nM
same,EC50,DENV4 (1036),930 ± 130 nM
same,IC50,DENV2 NS5/RdRp,242000 nM
